Measured values published in patent US10023708B2, “Method of producing a delivery device” (PTT HOLDING APS, priority 2011, dated 2018).

Key:
[1] = Determination of work of adhesion Whc between chemical compound and second polymer; type: physicochemical
Text: (§1) The “work of adhesion” between two dissimilar materials is a measure of the energy required to separate the two dissimilar materials from each other. The work of adhesion is indicated with Wxy, wherein x and y respectively are the two dissimilar materials in question. Wxy is herein determined in joule per square meter of contact area of the x and y material to be separated (J/m^2). The contact area of the second polymer and the chemical component is proportional to the amount of a given chemical component and accordingly the Whc value could also be determined as J/mol chemical component. Work of adhesion (Whc) between the second polymer (h) and the chemical component (c) is determined according to the formula: Whc=γhn+γcn−γch, wherein γhn is the interfacial tension between h and n, γcn is the interfacial tension between c and n, and γch is the interfacial tension between c and h, where h=second polymer, n=normal saline and c=chemical component. The respective values of interfacial tension can be determined by any well known method or they can be calculated. Interfacial tensions can be determined from surface tensions of the individual compound, which can be measured or estimated from e.g. HSP which can be measured or estimated from group contribution calculations based on the chemical structure of the individual compound in question. […] At 1 bar and 25° C. the respective work of adhesion between sulfamethizole and the two polymers PDMS and PHEMA of the IPN of Example 1 was determined with respectively EtOH and water as loading solvents. Work of adhesion between sulfamethizole and the two polymers PDMS and PHEMA of the IPN of Example 1 was determined with varying volume fractions of EtOH in a loading solvent of EtOH and scCO2. The determination was determined at 300 bars and 75° C.

[2] = Determination of work of adhesion Wsc between chemical compound and first polymer; type: physicochemical
Text: as §1

[3] = Release of sulfamethizole from loaded IPN discs soaked in phosphate buffer; type: physicochemical; conditions: soaked in phosphate buffer solution at pH 4.5 over a period of about 14 days
Method: 2.5 g sulfamethizole (Unikem) was mixed with 60 ml sodium thiosulfate solution (12 ml 0.1 M was diluted to 60 ml using deionized water).
Drug loading was performed by placing 10 discs obtained from Example 1 in a 16 ml reactor. 2.00 ml of the above sulfamethizole mixture and 2.00 ml 99.8% EtOH supplied by Merck (Germany) was fed to the reactor. The discs were kept under stirring during the treatment time. The pressure in the reactor was initially raised to about 100 bars and with a temperature of about 44° C. Thereafter the temperature was raised to 75° C. and the pressure increased to 300 bars with CO2 (N48 CO2 supplied by Air Liquid Denmark A/S).

[4] = Loading of Ceragenin CSA-13 into IPN discs and its release; conditions: IPN discs about 20% PHEMA loaded in EtOH + CO2
Method: 6 IPN discs (010 mm, thickness 1-2 mm) obtained from Example 1 and with about 20% PHEMA (total mass about 1.3266 g) was loaded with about 500 mg Ceragenin CSA-13. The loading solvent was 2.00 ml 99.8% EtOH supplied by Merck (Germany) and N48 CO2 (supplied by Air Liquid Denmark A/S (Denmark)). The Ceragenin CSA-13 was initially dissolved in the 2.00 ml 99.8% EtOH and injected into a reactor of 16 ml comprising the discs. The pressure was raised to about 300 bars by injecting CO2 and the temperature was raised to about 75° C. The discs were treated at this pressure and temperature under stirring (1100 rpm) for 21 hours and 50 minutes, where after the pressure was reduced, the discs were withdrawn and allowed to cool down.

[5] = Release of miconazole nitrate from loaded IPN discs versus PDMS discs; type: physicochemical; conditions: 75° C., 2 hours
Method: a) 10 PDMS (Polydimethylsiloxane) (silpuran 6000/40 supplied by Wacker) discs within the same mass range were used per high pressure vessel for loading drug into PDMS. […] The reactors were then coupled to a scCO2 system. scCO2 was applied at 350 bars until the pressure inside the reactors also reached 350 bars. The pressure remained at 350 bars throughout the procedure. The reaction was left for equilibration for 2 hours. d) The pressure was released, and the discs loaded with miconazole nitrate were gently cleaned with ethanol, and stored protected from light. a) 10 PDMS (Polydimethylsiloxane) discs within the same mass range were used per high pressure vessel for loading drug into PDMS. […] The reactors were then coupled to a scCO2 system. scCO2 was applied at 350 bars until the pressure inside the reactors also reached 350 bars. This pressure was maintained throughout the procedure. The reaction was left for equilibration for 2 hours. d) The pressure was released, and the discs loaded with miconazole nitrate were gently cleaned with ethanol, and stored protected from light.

[6] = 1 bar, 25° C., loading solvent EtOH
[7] = 1 bar, 25° C., loading solvent Water
[8] = 300 bars, 75° C., volume fractions EtOH 0.0000 / scCO2 1.0000
[9] = 300 bars, 75° C., volume fractions EtOH 0.0625 / scCO2 0.9375
[10] = 300 bars, 75° C., volume fractions EtOH 0.1250 / scCO2 0.8750
[11] = 300 bars, 75° C., volume fractions EtOH 0.1875 / scCO2 0.8125
[12] = 300 bars, 75° C., volume fractions EtOH 0.2500 / scCO2 0.7500
[13] = 300 bars, 75° C., volume fractions EtOH 0.3125 / scCO2 0.6875
[14] = 300 bars, 75° C., volume fractions EtOH 0.3750 / scCO2 0.6250
[15] = 300 bars, 75° C., volume fractions EtOH 0.4375 / scCO2 0.5625
[16] = 300 bars, 75° C., volume fractions EtOH 0.5000 / scCO2 0.5000
[17] = 300 bars, 75° C., volume fractions EtOH 0.5625 / scCO2 0.4375
[18] = 300 bars, 75° C., volume fractions EtOH 0.6250 / scCO2 0.3750
[19] = 300 bars, 75° C., volume fractions EtOH 0.6875 / scCO2 0.3125
[20] = 300 bars, 75° C., volume fractions EtOH 0.7500 / scCO2 0.2500
[21] = 300 bars, 75° C., volume fractions EtOH 0.8125 / scCO2 0.1875
[22] = 300 bars, 75° C., volume fractions EtOH 0.8750 / scCO2 0.1250
[23] = 300 bars, 75° C., volume fractions EtOH 0.9375 / scCO2 0.0625
[24] = 300 bars, 75° C., volume fractions EtOH 1.0000 / scCO2 0.0000

With `Cc1nnc(NS(=O)(=O)c2ccc(N)cc2)s1` [sulfamethizole] the “Work of adhesion Whc h = PHEMA c = sulfamethizole” value [1, 6] was 3.8908 J/m^2, the “Work of adhesion Whc h = PHEMA c = sulfamethizole” value [1, 7] was 38.3326 J/m^2 and the “Work of adhesion Whc h = PHEMA c = sulfamethizole” value [1, 8] was 29.8588 J/m^2. The “Work of adhesion Whc h = PHEMA c = sulfamethizole” value [1, 9] was 25.3418 J/m^2, the “Work of adhesion Whc h = PHEMA c = sulfamethizole” value [1, 10] was 21.2182 J/m^2 and the “Work of adhesion Whc h = PHEMA c = sulfamethizole” value [1, 11] was 17.4885 J/m^2. The “Work of adhesion Whc h = PHEMA c = sulfamethizole” value [1, 12] was 14.1531 J/m^2, the “Work of adhesion Whc h = PHEMA c = sulfamethizole” value [1, 13] was 11.2126 J/m^2 and the “Work of adhesion Whc h = PHEMA c = sulfamethizole” value [1, 14] was 8.6675 J/m^2. The “Work of adhesion Whc h = PHEMA c = sulfamethizole” value [1, 15] was 6.5181 J/m^2, the “Work of adhesion Whc h = PHEMA c = sulfamethizole” value [1, 16] was 4.7652 J/m^2 and the “Work of adhesion Whc h = PHEMA c = sulfamethizole” value [1, 17] was 3.4091 J/m^2. The “Work of adhesion Whc h = PHEMA c = sulfamethizole” value [1, 18] was 2.4503 J/m^2, the “Work of adhesion Whc h = PHEMA c = sulfamethizole” value [1, 19] was 1.8894 J/m^2 and the “Work of adhesion Whc h = PHEMA c = sulfamethizole” value [1, 20] was 1.7267 J/m^2. For the same compound, the “Work of adhesion Whc h = PHEMA c = sulfamethizole” value [1, 21] was 1.9629 J/m^2, the “Work of adhesion Whc h = PHEMA c = sulfamethizole” value [1, 22] was 2.5985 J/m^2 and the “Work of adhesion Whc h = PHEMA c = sulfamethizole” value [1, 23] was 3.6338 J/m^2. The “Work of adhesion Whc h = PHEMA c = sulfamethizole” value [1, 24] was 5.0694 J/m^2, the “Work of adhesion Wsc s = PDMS c = sulfamethizole” value [2, 6] was 6.3434 J/m^2 and the “Work of adhesion Wsc s = PDMS c = sulfamethizole” value [2, 7] was 57.7309 J/m^2. For the same compound, the “Work of adhesion Wsc s = PDMS c = sulfamethizole” value [2, 8] was 14.1969 J/m^2, the “Work of adhesion Wsc s = PDMS c = sulfamethizole” value [2, 9] was 11.2585 J/m^2 and the “Work of adhesion Wsc s = PDMS c = sulfamethizole” value [2, 10] was 8.714 J/m^2. The “Work of adhesion Wsc s = PDMS c = sulfamethizole” value [2, 11] was 6.5641 J/m^2, the “Work of adhesion Wsc s = PDMS c = sulfamethizole” value [2, 12] was 4.8092 J/m^2 and the “Work of adhesion Wsc s = PDMS c = sulfamethizole” value [2, 13] was 3.4498 J/m^2. The “Work of adhesion Wsc s = PDMS c = sulfamethizole” value [2, 14] was 2.4864 J/m^2, the “Work of adhesion Wsc s = PDMS c = sulfamethizole” value [2, 15] was 1.9195 J/m^2 and the “Work of adhesion Wsc s = PDMS c = sulfamethizole” value [2, 16] was 1.7497 J/m^2. For the same compound, the “Work of adhesion Wsc s = PDMS c = sulfamethizole” value [2, 17] was 1.9773 J/m^2, the “Work of adhesion Wsc s = PDMS c = sulfamethizole” value [2, 18] was 2.6029 J/m^2 and the “Work of adhesion Wsc s = PDMS c = sulfamethizole” value [2, 19] was 3.6271 J/m^2. The “Work of adhesion Wsc s = PDMS c = sulfamethizole” value [2, 20] was 5.0502 J/m^2, the “Work of adhesion Wsc s = PDMS c = sulfamethizole” value [2, 21] was 6.8727 J/m^2 and the “Work of adhesion Wsc s = PDMS c = sulfamethizole” value [2, 22] was 9.0953 J/m^2. For the same compound, the “Work of adhesion Wsc s = PDMS c = sulfamethizole” value [2, 23] was 11.7183 J/m^2, the “Work of adhesion Wsc s = PDMS c = sulfamethizole” value [2, 24] was 14.7422 J/m^2 and the “amount of loaded compound released from the discs” value [3] was “the major amount”.

In the case of `CCCCCCCCNCCC[C@@H](C)[C@H]1CC[C@H]2[C@@H]3[C@H](OCCCN)C[C@@H]4C[C@H](OCCCN)CC[C@]4(C)[C@H]3C[C@H](OCCCN)[C@]12C` [Ceragenin CSA-13], the “release from the delivery device, microbiological effect” value [4] is reported as “can be released in sufficient amounts to provide a significant microbiological effect”.

For `Clc1ccc(COC(Cn2ccnc2)c2ccc(Cl)cc2Cl)c(Cl)c1` (stereo not drawn) [miconazole nitrate], the “amount releasable from the IPN discs compared with the PDMS discs” value ([5]; Test 1: loaded using scCO2, 350 bars) was “much higher” and the “amount releasable from the IPN discs compared with the PDMS discs” value ([5]; Test 2: loaded using scCO2 and methanol, 350 bars) was “much higher”.
